Results published in paper PMC8097418, “In Vitro and In Vivo Antibacterial Activities of a Novel Quinolone Compound, OPS-2071, against Clostridioides difficile” (Antimicrobial Agents and Chemotherapy, 2021).
In brackets after ≈: the same amount, converted by molar mass. Where two headings read alike, the source gives them in different places.

Columns and labels:
[1] = test system: 54 clinically isolated C. difficile strains; experiment: MIC by agar dilution against 54 clinically isolated strains; assay type: cell-based, Clostridioides difficile
Experimental: (§1) MICs obtained using the agar dilution method were determined visually as described for the CLSI method ([41], [42]). MICs obtained using the broth dilution method were determined visually based on the CLSI method except for using Gifu anaerobic medium (GAM) broth instead of supplemented Brucella broth ([41], [42]).

[2] = test system: hypervirulent and nonhypervirulent strains of C. difficile (62 strains); experiment: MIC distribution against 20 hypervirulent and 42 nonhypervirulent strains; assay type: cell-based, Clostridioides difficile; details: for MIC50 / MIC90: Clostridioides difficile
[3] = test system: 10 clinical isolates of C. difficile; experiment: MIC (broth dilution) and MBC testing, 10 clinical isolates; assay type: cell-based, Clostridioides difficile; details: 10 clinical isolates
Experimental: In this test, MIC testing was performed using the broth dilution method as recommended in the CLSI ([41]). After the MICs were determined, 10 μl of the bacterial suspension from the MIC test tube was inoculated onto agar plates and incubated at 37°C. The bacterial colonies were then counted and bacterial numbers were calculated. The MBC was considered to be the lowest concentration of the antibiotics that prevented growth and reduced the inoculum by >99.9% within 48 h, irrespective of counts of survivors at higher antibiotic concentrations.

[4] = test system: C. difficile ATCC 700057; experiment: MIC by agar dilution (CLSI) against quality control strain; assay type: cell-based, Clostridioides difficile; details: Clostridioides difficile, read-out: MIC
Experimental: as §1

[5] = test system: C. difficile ATCC 700057; experiment: MIC by broth dilution (GAM broth); assay type: cell-based, Clostridioides difficile; details: Clostridioides difficile, read-out: MIC
Experimental: as §1

[6] = test system: C. difficile ATCC 700057; experiment: Killing kinetics (time-kill curves); assay type: cell-based, Clostridioides difficile
Experimental: The test tubes were incubated for 48 h. The CFU/ml values of the bacterial suspensions were calculated at 0, 2, 4, 6, 24, and 48 h by culturing 0.1-ml samples of serial 10-fold dilutions on GAM agar plates at 37°C under anaerobic conditions and then counting the number of growing colonies. The CFU/ml value at each time point is from one sample of datum.

[7] = test system: C. difficile ATCC 700057; assay type: cell-based, Clostridioides difficile
[8] = test system: C. difficile ATCC 700057; experiment: Mutant prevention concentration; assay type: cell-based, Clostridioides difficile
Experimental: The mutant prevention concentration was measured by plating approximately 10^10 CFU of C. difficile ATCC 700057 onto a GAM agar plate containing the test agent. Inoculated plates were incubated for 3 days, and the MIC for each antibiotic that prevented the growth of colonies was determined using the agar dilution method as described by the CLSI ([41]). The MIC values of grown colonies were compared to determine which bacteria were resistant. The MPC was defined as the lowest concentration that prevented the growth of resistant bacteria.

[9] = Pharmacokinetics in the rat (plasma, oral and intravenous); assay type: in vivo, male SD rats
Experimental: OPS-2071 was orally or intravenously administered at 1 mg/kg to male SD rats, and plasma was collected 0.5, 1, 2, 4, 6, 8, 12, 24, 48, and 72 h postdose (oral, n = 3 for each time point) or 0.083, 0.25, 0.5, 1, 2, 4, 6, 8, 12, 24, 48, and 72 h postdose (intravenous, n = 3 for each time point). After solid-phase extraction, the OPS-2071 concentration in plasma was determined by a validated LC-ESI-MS/MS method, and bioavailability was calculated. The mass spectrometer QTRAP 5500 (AB Sciex Pte. Ltd.) and high-performance liquid chromatography Prominence UFLCXR system (Shimadzu Corp.) were used. The PK parameters (AUCt) were determined with the same WinNonlin professional software, and the bioavailability was calculated from AUCt,oral and AUCt,intravenous.

[10] = test system: C. difficile ATCC 43255; experiment: MIC against the infection strain; assay type: cell-based, Clostridioides difficile
[11] = test system: C. difficile ATCC 700057; experiment: Effect of pH on MIC (agar dilution); assay type: cell-based, Clostridioides difficile; details: for MIC: Clostridioides difficile
[12] = target: DNA gyrase of C. difficile (Clostridioides difficile, UniProt Q18C89+Q18C90); experiment: biochemical
[13] = nonhypervirulent strains (n = 42)

DNA gyrase of C. difficile, sequence (Q18C90 entry or part of it): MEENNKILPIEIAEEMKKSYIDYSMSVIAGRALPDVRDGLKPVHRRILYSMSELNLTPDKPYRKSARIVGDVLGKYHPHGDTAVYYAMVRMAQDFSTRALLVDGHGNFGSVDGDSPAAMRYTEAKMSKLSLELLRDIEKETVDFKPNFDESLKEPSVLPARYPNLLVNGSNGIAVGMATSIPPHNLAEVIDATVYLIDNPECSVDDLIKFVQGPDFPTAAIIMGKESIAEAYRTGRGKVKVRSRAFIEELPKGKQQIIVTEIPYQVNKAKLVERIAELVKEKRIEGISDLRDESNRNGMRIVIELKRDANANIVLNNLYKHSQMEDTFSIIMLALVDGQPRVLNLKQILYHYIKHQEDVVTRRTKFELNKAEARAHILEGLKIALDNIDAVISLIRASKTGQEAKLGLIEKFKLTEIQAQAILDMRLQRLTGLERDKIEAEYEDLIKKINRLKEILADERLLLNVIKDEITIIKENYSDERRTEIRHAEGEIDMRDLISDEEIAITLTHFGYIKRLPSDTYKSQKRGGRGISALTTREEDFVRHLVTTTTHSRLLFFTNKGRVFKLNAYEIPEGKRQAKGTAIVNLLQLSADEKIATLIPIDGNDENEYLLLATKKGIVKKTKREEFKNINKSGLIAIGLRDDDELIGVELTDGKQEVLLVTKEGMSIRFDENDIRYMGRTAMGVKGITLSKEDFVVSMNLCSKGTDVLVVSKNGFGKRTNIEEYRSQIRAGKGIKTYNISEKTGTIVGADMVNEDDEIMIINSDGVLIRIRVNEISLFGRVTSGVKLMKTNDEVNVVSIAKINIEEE
DNA gyrase of C. difficile, sequence (Q18C89 entry or part of it): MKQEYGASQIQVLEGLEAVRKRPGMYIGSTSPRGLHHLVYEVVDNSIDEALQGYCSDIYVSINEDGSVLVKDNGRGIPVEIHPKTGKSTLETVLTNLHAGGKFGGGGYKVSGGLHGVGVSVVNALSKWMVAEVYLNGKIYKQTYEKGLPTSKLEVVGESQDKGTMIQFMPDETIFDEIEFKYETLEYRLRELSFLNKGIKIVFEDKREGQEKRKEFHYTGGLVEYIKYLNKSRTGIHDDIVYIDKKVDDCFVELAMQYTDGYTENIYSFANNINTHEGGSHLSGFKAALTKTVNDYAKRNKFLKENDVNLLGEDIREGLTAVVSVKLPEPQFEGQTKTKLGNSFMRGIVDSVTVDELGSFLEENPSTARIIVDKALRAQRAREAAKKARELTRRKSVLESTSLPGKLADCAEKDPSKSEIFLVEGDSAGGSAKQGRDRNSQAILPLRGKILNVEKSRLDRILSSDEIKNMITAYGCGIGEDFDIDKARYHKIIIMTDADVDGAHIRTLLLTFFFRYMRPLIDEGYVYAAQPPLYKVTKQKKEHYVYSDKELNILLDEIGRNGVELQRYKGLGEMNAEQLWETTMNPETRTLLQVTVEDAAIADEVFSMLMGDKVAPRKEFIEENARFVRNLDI

In the case of `Cc1c(-c2cnc(N)c(C#N)c2)c(F)cc2c(=O)c(C(=O)O)cn(C3CC3)c12` [OPS-2071, 7-(6-amino-5-cyanopyridin-3-yl)-1-cyclopropyl-6-fluoro-8-methyl-4-oxo-1,4-dihydroquinoline-3-carboxylic acid], the “MIC50 fold higher than that of fidaxomicin” value ([1]; 54 clinical isolates) is reported as 2 fold, the “MIC50 fold lower than those of vancomycin and metronidazole” value ([1]; 54 clinical isolates) is reported as 16 fold and the “MIC90 fold lower than that of fidaxomicin” value ([1]; 54 clinical isolates) is reported as 16 fold. The “MIC90 fold lower than those of vancomycin and metronidazole” value ([1]; 54 clinical isolates) was 8 fold, the MIC range ([1]; 54 clinically isolated C. difficile strains) was 0.016 to 1 mg/L and the MIC50 ([1]; Clostridioides difficile) was 0.125 mg/L (≈ 0.33 µM). For the same compound, the MIC90 ([1]; Clostridioides difficile, 54 clinically isolated C. difficile strains) was 0.5 mg/L (≈ 1.32 µM), the MIC50 ([2]; hypervirulent strains (n = 20)) was 0.03 mg/L (≈ 0.0793 µM) and the MIC90 ([2]; hypervirulent strains (n = 20)) was 0.25 mg/L (≈ 0.661 µM). For the same compound, the MIC50 [2, 13] was 0.03 mg/L (≈ 0.0793 µM), the MIC90 [2, 13] was 0.125 mg/L (≈ 0.33 µM) and the “Cumulative percentage of strains” value ([2]; Hyp (n = 20), MIC 0.063 μg/ml) was 75%. For the same compound, the “Cumulative percentage of strains” value ([2]; Hyp (n = 20), MIC 0.25 μg/ml) was 100%, the “Cumulative percentage of strains” value ([2]; Non-hyp (n = 42), MIC 0.063 μg/ml) was 88% and the “Cumulative percentage of strains” value ([2]; Non-hyp (n = 42), MIC 0.25 μg/ml) was 100%. The MIC range ([2]; hypervirulent strains (n = 20)) was 0.03 to 0.25 mg/L, the MIC range [2, 13] was 0.03 to 0.25 mg/L and the MBC90/MIC90 [3] was 1. For the same compound, the “MBC Range” value ([3]; >99.9% reduction within 48 h) was 0.03 to 0.5 mg/L, the “MIC range” value ([3]; broth dilution) was 0.03 to 0.5 mg/L and the MIC90 ([3]; Clostridioides difficile, broth dilution, read-out: MIC90) was 0.5 mg/L (≈ 1.32 µM). For the same compound, the MBC ([3]; Clostridioides difficile, read-out: MBC90) was 0.5 mg/L (≈ 1.32 µM), the MIC ([4]; ATCC700057, agar dilution, determined for the spontaneous resistance assay) was 0.03 mg/L (≈ 0.0793 µM) and the MIC ([4]; ATCC700057, quality control strain ATCC 700057, CLSI method) was 0.031 mg/L (≈ 0.0819 µM). The MIC ([5]; ATCC700057, broth dilution, retested for the time-kill assay) was 0.03 mg/L (≈ 0.0793 µM), the MIC ([5]; ATCC700057, broth method, determined for the PAE assay) was 0.06 mg/L (≈ 0.159 µM) and the “regrowth of the bacteria” value ([6]; after 48 h of incubation) was “regrowth of the bacteria did not occur”. For the same compound, the “time to undetectable level of viable bacteria” value ([6]; concentrations higher than the MIC) was ≤ 24 h, the “reduction of viable bacteria” value ([6]; concentrations higher than the MIC, first 2 h) was 2 log and the “Frequency of spontaneous resistance” value ([7]; 4× MIC) was <9.17 × 10^–9. For the same compound, the “Frequency of spontaneous resistance” value ([7]; 16× MIC) was <9.17 × 10^–9, the “Frequency of spontaneous resistance” value ([7]; 64× MIC) was <9.17 × 10^–9 and the “MPC fold lower than those of fidaxomicin and vancomycin” value [8] was 16 fold. For the same compound, the “mutant prevention concentration (MPC)” value ([8]; approximately 10^10 CFU, 3 days) was 0.5 µg/mL, the “plasma concentrations at 48 and 72 h after administration” value ([9]; 1 mg/kg oral or intravenous) was < 0.5 ng/mL and the bioavailability ([9]; male, SD, rat, plasma, 1 mg/kg, from AUCt oral and intravenous) was 2.9%. For the same compound, the AUC(0-t) ([9]; male, SD, rat, intravenous, 1 mg/kg, plasma) was 0.672 µg·h/mL, the AUC(0-t) ([9]; male, SD, rat, oral, 1 mg/kg, plasma) was 0.0195 µg·h/mL and the MIC [10] was 0.016 mg/L (≈ 0.0423 µM). For the same compound, the MIC ([11]; ATCC700057, pH 6) was 0.016 mg/L (≈ 0.0423 µM), the MIC ([11]; ATCC700057, pH 7) was 0.016 mg/L (≈ 0.0423 µM) and the MIC ([11]; ATCC700057, pH 8) was 0.03 mg/L (≈ 0.0793 µM). The “influence of pH on MICs” value ([11]; pH 6 to 8) was “not influenced by pH” and the IC50 [12] was 0.608 µM.
